The record followed here is patent publication US12653796B2, “Compounds for use (in particular RIPA-56) in the prevention and/or treatment of non-alcoholic fatty liver disease” (SORBONNE UNIVERSITE, priority 2019, dated 2026).

Molecules are shown by their SMILES.

The assay concerns HFD-fed mice. Description: RIPA-56 feeding experiment in HFD-fed mice (NASH/steatosis model). In kind it is in vivo, C57BL/6J mice. The method, then: FIG. 2. RIPA-56 treatment improves liver inflammation and fibrosis in HFD-fed mice. Six-week-old male C57BL/6J mice (n=5 per group) were fed either with normal control diet (NCD) or high-fat diet (HFD) supplemented or not with RIPA-56, according to prophylactic (“Pro”) or curative (“Cur”) designs for 16 weeks, the time necessary for an inflammatory and fibrotic response to develop. Differences between mice were determined by analysis of variance (ANOVA) with Bonferroni's multiple comparison. (A) Schematic representation of the experimental design; (B) Immunoblot analyses of whole liver protein extracts from mice fed NCD (1 to 3), HFD (4 to 6), HFD with RIPA-56 “Pro” (7 to 9), or HFD with RIPA-56 “Cur” (10 to 12) using antibodies against RIPK1, MLKL, RIPK3 and GAPDH as loading control; (C) Serum analysis of ALT; (D) Immuno-histochemical analysis of F4/80 on representative liver tissue sections from mice of each group; (E) Quantitative analysis of F4/80^+ foci using ImageJ software, 10 pictures per mouse were quantified; (F) F4/80, Mcp-1 and Tnf mRNA levels were assessed by RT-qPCR. (G) Representative Sirius Red staining of liver tissue section from mice of each group; (H) Quantification of light polarized Sirius Red pictures, 10 pictures per mouse were analyzed; (I) Collal mRNA levels were assessed by RT-qPCR. All data are expressed as mean±SEM; *p<0.05; **p<0.01; ***p<0.001. Scale bars indicate 50 μm.
FIG. 5. RIPA-56 treatment improves HFD-induced obesity and steatosis in mice. Six-week-old male C57BL/6J mice (n=5 per group) were fed either NCD or HFD supplemented or not with RIPA-56 for 16 weeks, as depicted in FIG. 2A, to analyze the metabolic status of the mice. (A) Body weight gain in mice of the 4 groups. No significant change in (B) food intake, (C) spontaneous locomotor activity, or (D) respiratory exchange ratio (RER) in mice Of the 4 groups; (E) Whole energy expenditure was evaluated during daylight and night in mice of the 4 groups; (F) Representative H&E staining of liver tissue sections from mice of the 4 groups. Scale bars, 50 μm; (G) Steatosis score of liver tissue sections was evaluated blinded; (H) Intrahepatic triglyceride contents were measured in two liver samples per mouse. Results are shown as mean±SEM; *p<0.05; **p<0.01; ***p<0.001.
FIG. 6. Fat and lean mass in prophylactically- and curatively-treated mice compared with control mice under HFD. (A) Body fat mass and relative body fat content, and (B) lean mass and relative lean content were evaluated in HFD-fed mice using MRI analysis. All results are shown as mean±SEM; n=5 per group; *p<0.05. Differences between groups were determined by one-way ANOVA with Bonferroni's multiple comparison.
Six-week-old male C57BL/6J mice (Charles River Laboratories, Ecully, France) were fed a high-fat diet (HFD—45 kcal % fat) or a normal chow diet (NCD) (Ssniff spezialdiäten GmbH, Soest, Germany) for 16 weeks (the time necessary for an inflammatory and fibrotic response to develop).
RIPA-56 (MedChemExpress, Stockholm, Sweden) was incorporated in diet by Ssniff spezialdiäten GmbH (Soest, Germany) according to a standardized protocol. Ssniff company is an approved manufacturer of laboratory animal diets and has the license to produce medicated feed for laboratory animals in accordance with Directive 2001/82/EC. Before the end of the feeding period, mice were single housed for one week in metabolic cages to measure food intake, respiratory exchange ratio (RER), energy expenditure and spontaneous locomotor activity using a LabMaster indirect calorimetry system (TSE Systems GmbH, Bad Homburg, Germany). Mice were sacrificed under anesthesia and blood was collected via intracardiac puncture procedure. Tissue samples were either directly snap-freezed in liquid nitrogen for molecular analysis or fixed in 4% PFA and embedded in paraffin for histological analysis. […]

Consider `CCC(C)(C)C(=O)N(O)Cc1ccccc1` [RIPA-56, N-Benzyl-N-hydroxy-2,2-dimethylbutanamide], for which the “MLKL and RIPK3 expression in liver (Western blot)” value (HFD 16 weeks, 300 mg/kg in diet, both prophylactic and curative treatments) is “repressed”. For the setting “HFD-fed mice”, the “hepatic fat content by blinded histological analyses” value is “marked decrease” and the “hepatic triglyceride content, reduction” value is 30-40%. Under “RIPA-56-treated HFD-fed mice”, the “increments in liver mRNA levels of Ccl20, Nlrp3 or Il-1b” value is recorded as “abrogated or reduced”. Besides, the “expression of RIPK1 in liver” value (Western blot and RT-qPCR) is given as “not impacted”. For the same compound, under “both curative and prophylactic settings”, the steatosis result was “largely reduced”. In addition, where the note is “both prophylactic and curative settings”, the “increase of serum alanine aminotransferase (ALT)” value is on record as “abolished”. Also, the “macrophage infiltration (hepatic F4/80 immunostaining)” value (both prophylactic and curative treatments) is reported as “suppressed”. Further, for the setting “both regimens”, the “liver mRNA levels of F4/80 and Mcp-1, difference HFD vs NCD” value is on record as “disappeared”. Besides, the “mRNA levels of MLKL and RIPK3 in liver” value (both regimens, RT-qPCR) was “decreased”. Moreover, where the note is “curative setting, start after 12 weeks of HFD”, the “body weight gain, fat- or lean-mass vs untreated HFD-fed mice” value is listed as “did not result in differences”. For the same compound, where the note is “curative treatment”, the “Collagen-1a1 (Col1a1) mRNA levels in liver” value is “reduced”, the “TNFα expression in liver” value is “markedly reduced” and the “intensity of histologic features of NASH” value is “largely attenuates”. Besides, the “pericellular fibrosis (Sirius red staining)” value (prophylactic and curative treatments) is “virtually disappeared”. Moreover, where the note is “prophylactic setting”, the “MLKL and RIPK3 expression in liver (Western blot)” value is “almost complete inhibition”; the “body weight gain, lower than untreated HFD-fed mice” value was roughly 12%; the “fat and relative fat mass (MRI)” value is “significant decrease”; the “lean and relative lean body mass (MRI)” value is on record as “trend towards increased”. In addition, where the note is “prophylactic treatment”, the “Collagen-1a1 (Col1a1) mRNA levels in liver” value is listed as “no longer increased”, the “histologic features of NASH” value was “prevents” and the “increase of TNFα expression in liver” value is “not after RIPA-56 prophylactic treatment”. Also, where the note is “prophylactic treatment vs curative or no treatment”, the “energy expenditure (indirect calorimetry)” value is “increased”.
